This assay has as its system subcutaneous transplanted tumors (CT26, LL/2, A375, MNK-45, SK-OV-3). Nature of the assay: Inhibition of growth of subcutaneous transplanted tumors in tumor-bearing mouse model. In kind it is in vivo. To be noted: 10 mg/kg. The text has this:
Embodiment 4: Test of Anti-Tumor Effect (i.e., The Inhibition Effect on the Growth of Subcutaneous Transplanted Tumors in Animals) of the Anti-Tumor Compound Drug with a Tumor-Bearing Mouse Model
BALB/c ordinary mice and C57/BL6 ordinary mice, male, 18-20 g in weight, 7-8 weeks old, SPF grade, purchased from Shanghai SLAC Laboratory Animal Co., Ltd. [Laboratory Animal Quality Certificate Number: SCXK (Shanghai) 2007-0005].
Mice are given intravenous injections, and one dose group is set: cGAMP, 10 mg/kg; compound anti-tumor drug, 10 mg/kg
Positive control: cGAMP, 10 mg/kg in dose
Administration route: administration by intraperitoneal injection
Administration volume: 100 μl/animal
Number of times of administration: continuous administration for 21 days, once every day
Number of animals in each group: 10
Mouse colorectal cancer cell line CT26, mouse Lewis lung cancer cell line LL/2, human ovarian cancer cell line SK-OV-3, human melanoma cell line A375, and human gastric cancer cell line MNK-45, which are all purchased from the Cell Bank of the Chinese Academy of Sciences.
The administration is continued for 21 days. 21 days later, the mice are killed and the tumors are weighed. Tumor inhibition rate=[1−mean tumor weight of experimental group/mean tumor weight of group A)]×100%.
Data is expressed with x±s, and processed with SPSS10.0 software. […]

For `Nc1nc2c(ncn2[C@@H]2O[C@@H]3COP(=O)(O)O[C@H]4[C@@H](O)[C@H](n5cnc6c(N)ncnc65)O[C@@H]4COP(=O)(O)O[C@@H]2[C@@H]3O)c(=O)[nH]1` [cGAMP, Cyclic [G(2′,5′)pA(3′,5′)p]], for the setting “once every day for 21 days, subcutaneous transplanted tumor models in mice”, the growth of tumors entry is on record as “obviously inhibit the growth of tumors”. For the setting “after administration for 21 days, P<0.05, P<0.01”, the “weights of tumors vs negative control group” value is on record as “significantly lower than those of the negative control group”.
